Experimental findings from patent publication US6838436B1, “Inhibitors of proteasomal activity for stimulating bone growth” (Osteoscreen Inc., priority 1998, dated 2005) are described below.

Read-outs that look alike come from different tables or passages of the source. Where a SMILES comes first, the peptide text is derived from it. [ ]: non-standard residue; d: D form. The star is where a group is joined. Nva = CCC[C@H](N)C(=O)O; Cbz = O=C(OCc1ccccc1)*; OtBu = CC(C)(C)O*

Assay [1] has as its system mouse BMP2 promoter. Kind of assay: High throughput screen (ABA assay): BMP2 promoter-luciferase reporter in 2T3-BMP-2-LUC osteoblast cells. It counts as cell-based. Particulars: for activity in the high through-put assay compared with simvastatin: Example 6; for EC50: read-out: Luciferase Activity (ED50-μM). From the text: 1995, the entire contents of which are incorporated herein by reference. This assay is also described as a portion of a study of immortalized murine osteoblasts (derived from a mouse expressing a transgene composed of a BMP2 promoter driving expression of T-antigen) in Ghosh-Choudhery, N., et al., Endocrinology (1996) 137:331-39. In this study, the immortalized cells were stably transfected with a plasmid containing a luciferase reporter gene driven by a mouse BMP2 promoter (−2736/114 bp), and responded in a dose-dependent manner to recombinant human BMP2.
Briefly, the assay utilizes cells transformed permanently or transiently with constructs in which the promoter of a bone morphogenetic protein, specifically BMP2 or BMP4, is coupled to a reporter gene, typically luciferase. These transformed cells are then evaluated for the production of the reporter gene product; compounds that activate the BMP promoter will drive production of the reporter protein, which can be readily assayed. Many thousands of compounds have been subjected to this rapid screening technique, and only a very small percentage are able to elicit a level of expression of reporter gene 5-fold greater than that produced by vehicle. […] The active compounds (“BMP promoter-active compounds” or “active compounds”) are useful in promoting bone or cartilage growth, and thus in the treatment of vertebrates in need of bone or cartilage growth.
Thousands of compounds have been tested in the assay system set forth in U.S. Ser. No. 08/458,434, filed 2 Jun. 1995, and incorporated herein by reference. […] In this screen, the standard positive control was the compound 59-0008 (also denoted “OS8”), which is of the formula: [drawing 22]
In more detail, the 2T3-BMP-2-LUC cells, a stably transformed osteoblast cell line described in Ghosh-Choudhury et al. Endocrinology (1996) 137:331-39, referenced above, was employed. The cells were cultured using α-MEM, 10% FCS with 1% penicillin/streptomycin and 1% glutamine (“plating medium”), and were split 1:5 once per week. For the assay, the cells were resuspended in a plating medium containing 4% FCS, plated in microtiter plates at a concentration of 5×10^3 cells (in 50 μl)/well, and incubated for 24 hours at 37° C. in 5% CO2. To initiate the assay, 50 μl of the test compound or the control in DMSO was added at 2× concentration to each well, so that the final volume was 100 μl. The final serum concentration was 2% FCS, and the final DMSO concentration was 1%. Compound 59-0008 (10 μM) was used as a positive control.
The treated cells were incubated for 24 hours at 37° C. and 5% CO2. The medium was then removed, and the cells were rinsed three times with PBS. After removal of excess PBS, 25 μl of 1× cell culture lysing reagent (Promega #E153A) was added to each well and incubated for at least ten minutes. Optionally, the plates/samples could be frozen at this point. To each well was added 50 μl of luciferase substrate (Promega #E152A; 10 ml Promega luciferase assay buffer per 7 mg Promega luciferase assay substrate). Luminescence was measured on an automated 96-well luminometer, and was expressed as either picograms of luciferase activity per well or as picograms of luciferase activity per microgram of protein.
Accordingly, other tested compounds can be evaluated at various concentrations, and the results compared to the results obtained for 59-0008 at 10 μM (which value would be normalized to 100). Alternatively, the reactivity of a compound to be tested can be compared directly to a negative control containing no compound.
(In general: A reporter such as luciferase makes a cellular process visible.)

The test system of assay [2] is hair follicles of skin explants. Kind of assay: Cultured skin explants from 5 day old mice, hair follicle diameter and elongation (Example 11). It counts as cell-based, C3H/HeS1c mice. Particulars: 72 hours. As to the method: Cultured skin explants from 5 day old mice cultured for 72 hours were treated with proteasome inhibitors, non-proteasomal proteases and non-proteasomal inhibitors of NF-κB and effects on hair follicle diameter and follicle elongation were determined according to the method of Kamiya, T., et al., J Derm Sci (1998) 17:54-60. Skin slices from the dorsal skin of 5 day old C3H/HeS1c mice were cultured in 1 ml of αMEM and 0.1% BSA for 72 hours and then assessed for changes in hair follicle diameter and hair elongation under an inverted microscope, using image analysis. […] Thus, the chymotrypsin-like activity of the proteasome is the catalytic component of the proteasome that is responsible for the effects of these compounds on hair follicle differentiation and hair growth. Only proteasome inhibitors had discernable effects on these parameters.

The subject of assay [3] is hair follicles. Kind of assay: Induction of anagen in hair follicles in vivo (Example 12). More on the design: species or system C57 black mice. Particulars: for hair follicle differentiation in vivo: examined 16 days later. Here is the method: Inhibitors of the proteasomal chymotrypsin-like activity were treated for their capacity to induce transit of hair follicles into anagen in vivo in C57 black mice eight weeks of age.

Assay [4] has as its system neonatal mouse calvaria. The assay is described as follows: Neonatal mouse calvaria assay (in vitro / ex vivo) for bone formation. Particulars: for EC50: read-out: Bone Formation (ED50-μM). In kind it is cell-based, ICR Swiss white mouse. Here is the method: An assay for bone resorption or bone formation is similar to that described by Gowen M. & Mundy G., J Immunol (1986) 136:2478-82. Briefly, four days after birth, the front and parietal bones of ICR Swiss white mouse pups are removed by microdissection and split along the sagittal suture. In an assay for resorption, the bones are incubated in BGJb medium (Irvine Scientific, Santa Ana, Calif.) plus 0.02% (or lower concentration) β-methylcyclodextrin, wherein the medium also contains test or control substances. The medium used when the assay is conducted to assess bone formation is Fitton and Jackson Modified BGJ Medium (Sigma) supplemented with 6 μg/ml insulin, 6 μg/ml transferrin, 6 ng/ml selenous acid, calcium and phosphate concentrations of 1.25 and 3.0 mM, respectively, and ascorbic acid to a concentration of 100 μg/ml is added every two days. The incubation is conducted at 37° C. in a humidified atmosphere of 5% CO2 and 95% air for 96 hours.
Following this, the bones are removed from the incubation media and fixed in 10% buffered formalin for 24-48 hours, decalcified in 14% EDTA for 1 week, processed through graded alcohols; and embedded in paraffin wax. Three […] sections of the calvaria are prepared. Representative sections are selected for histomorphometric assessment of bone formation or bone resorption. Bone changes are measured on sections cut 200 μm apart. Osteoblasts and osteoclasts are identified by their distinctive morphology.
Selected compounds and appropriate controls were assayed in vitro (ex vivo) for bone formation activity (described above in “Techniques for Neonatal Mouse Calvaria Assay (in vitro)). Histomorphometrical assessments of ex vivo calvaria were carried out using an OsteoMetrics bone morphometry measurement program, according to the manufacturer's instructions. Measurements were determined using either a 10- or 20-fold objective with a standard point counting eyepiece graticule.
New bone formation was determined (using a 10× objective) by measuring the new bone area formed in one field in 3 representative sections of each bone (4 bones per group). Each measurement was carried out ½ field distance from the end of the suture. Both total bone and old bone area were measured. Data were expressed as new bone area in μm^2.
Osteoblast numbers are determined by point counting. The number of osteoblast cells lining the bone surface on both sides of the bone are counted in one field using a 20× objective. Data are expressed as osteoblast numbers/mm of bone surface. […]

Setting [5] is: Mus musculus, calvarial assay in vitro.

`CC[C@H](C)[C@H](NC(=O)[C@H]([C@@H](C)CC)N(C)C(C)=O)C(=O)N[C@H](C(=O)N[C@@H](CC(C)C)C(=O)[C@@]1(C)CO1)[C@@H](C)O` [Epoxomicin]: the “activity in the high through-put assay compared with simvastatin” value in assay [1] is “more active than simvastatin”. For the same molecule, the Luciferase activity/well worked out at 0.07 in assay [1] (dose 0.000625 μM); 0.07 in assay [1] (dose 0.00125 μM); 0.08 in assay [1] (dose 0.0025 μM); 0.10 in assay [1] (dose 0.005 μM); 0.14 in assay [1] (dose 0.01 μM); 0.17 in assay [1] (dose 0.02 μM). Besides, the Luciferase activity/well in assay [1] (dose 0.04 μM) stood at 0.20; in assay [1] (dose 0.08 μM), 0.21. In addition, the “effective in concentrations as low as” value in assay [2] came out at 12.5 nM. Moreover, the “hair follicle differentiation in vivo” value in assay [3] (dose not given, subcutaneously in the scalp daily for 5 days) is “increased hair follicle differentiation in vivo”.

On to `CC(=O)N[C@@H](CSC(=O)[C@]1([C@@H](O)C(C)C)NC(=O)[C@H](C)[C@@H]1O)C(=O)O` [Lactacystin, lactacystin], for which the “response in the high throughput luciferase screen” value (“response” for short) in assay [1] is “Positive responses”. For the same molecule, the EC50 was 1 µM in assay [1] (Mus musculus, Osteoblast) and 1 µM in assay [4] (setting [5]). The “new bone formation in the in vitro calvarial assay” value (“new bone formation” for short) in assay [4] is recorded as “showed new bone formation”. For the same molecule, the “effect on hair follicle differentiation and hair growth” value in assay [2] (dose not given) was “effectively stimulated hair follicle differentiation and enhanced hair growth”.

Regarding `CCC[C@@H](C=O)NC(=O)[C@H](CC(C)C)NC(=O)[C@H](CC(C)C)NC(=O)OCc1ccccc1` [MG-115, N-carbobenzoyl-Leu-Leu-Nva-CHO] (Cbz-Leu-Leu-[Nva]-aldehyde), the “response” value in assay [1] is recorded as “high activity”. Also, the EC50 in assay [1] (Mus musculus, Osteoblast) worked out at 2 µM; in assay [4] (setting [5]) it was 1 µM. Besides, in assay [4], the “new bone formation” value is “positive results although less dramatic than those of simvastatin”.

Consider `CC[C@H](C)[C@H](NC(=O)OCc1ccccc1)C(=O)N[C@@H](CCC(=O)OC(C)(C)C)C(=O)N[C@@H](C)C(=O)N[C@H](C=O)CC(C)C` [PSI, N-carbobenzoyl-Ile-Glu-(OtBu)-Ala-Leu-CHO] (Cbz-IE(OtBu)AL-aldehyde), for which the “activity in the high through-put assay compared with simvastatin” value in assay [1] was “more active than simvastatin”. Also, the EC50 came out at 0.05 µM in assay [1] (Mus musculus, Osteoblast) and 0.03 µM in assay [4] (setting [5]). Moreover, the Luciferase activity/well in assay [1] (dose 0.000625 μM) amounted to 0.07; in assay [1] (dose 0.00125 μM), 0.08; in assay [1] (dose 0.0025 μM), 0.07; in assay [1] (dose 0.005 μM) it was 0.08; in assay [1] (dose 0.01 μM), 0.08; in assay [1] (dose 0.02 μM) it was 0.09. For the same molecule, the Luciferase activity/well in assay [1] (dose 0.04 μM) was 0.12; in assay [1] (dose 0.08 μM), 0.18. In assay [4], the “inducing bone formation compared with BMP-2 and bFGF” value was “as good as, or better than, BMP-2 and bFGF”. The “effect on hair follicle differentiation and hair growth” value in assay [2] (12.5 nM) was “effectively stimulated hair follicle differentiation and enhanced hair growth”. Moreover, the “hair follicle differentiation in vivo” value in assay [3] (5 mg/kg/day subcutaneously in the scalp daily for 5 days) was “increased hair follicle differentiation in vivo”.

Take simvastatin: the “response” value in assay [1] is “good response”. Further, the Luciferase activity/well is 0.07 in assay [1] (dose 0.000625 μM); 0.07 in assay [1] (dose 0.00125 μM); 0.065 in assay [1] (dose 0.0025 μM); 0.07 in assay [1] (dose 0.005 μM); 0.07 in assay [1] (dose 0.01 μM); 0.07 in assay [1] (dose 0.02 μM). Further, the Luciferase activity/well is 0.07 in assay [1] (dose 0.04 μM); 0.07 in assay [1] (dose 0.08 μM); 0.07 in assay [1] (dose 0.16 μM); 0.07 in assay [1] (dose 0.32 μM); 0.09 in assay [1] (dose 0.625 μM); 0.11 in assay [1] (dose 1.25 μM). The values for the Luciferase activity/well in assay [1] (dose 2.5 μM), in assay [1] (dose 5 μM) and in assay [1] (dose 10 μM) were 0.14, 0.15 and 0.15, respectively. The EC50 in assay [1] and in assay [4] (calvarial assay in vitro) was 0.2 µM throughout. The “new bone formation” value in assay [4] is “showed new bone formation”. In assay [3] (injected locally into the subcutaneous tissue in sufficient concentrations to cause local periosteal bone formation), the “effect on hair follicles” value is listed as “had no effect on hair follicles”.

As to `CC(C)C[C@@H](C=O)NC(=O)[C@@H](CC(C)C)NC(=O)[C@H](CC(C)C)NC(=O)OCc1ccccc1` [MG-132, N-carbobenzoyl-Leu-Leu-Leu-CHO] (Cbz-Leu-[dL]-Leu-aldehyde), the “response” value in assay [1] is recorded as “high activity”. In addition, the EC50 in assay [1] (Mus musculus, Osteoblast) amounted to 0.25 µM; in assay [4] (Mus musculus), 0.5 µM. For the same molecule, the “new bone formation” value in assay [4] is reported as “showed new bone formation”. Besides, in assay [2] (0.5 μM), the “effect on hair follicle differentiation and hair growth” value is “effectively stimulated hair follicle differentiation and enhanced hair growth”.
